Data set [1] concerns BDNF expression by astrocytes. Description: BDNF expression by astrocytes, qPCR. In kind it is cell-based, rat. To be noted: for BDNF expression astrocytes, % increase of control conditions: 25 ug/mL, 5 days incubation. Here is the method:
For analysis of BDNF expression by real-time quantitative polymerase chain reaction (qPCR), astrocytes were seeded in 24 well-plates pre-coated with poly-D-lysine. After 1 day of culture, fresh serum free medium containing compounds was added during 5 days at 37° C. At the end of the incubation time total RNA content were extracted and reverse transcription was performed. Expression levels were calculated using the ΔCt method where the expression level of the mRNA of interest is given by 2-ΔCT with ΔCT=CT target mRNA−CT reference mRNA (Gapdh), in the same sample.
Rat Primary Culture of Astrocytes—rat mixed glial cells were cultured as described by McCarthy et al., 1980. Primary rat glial cells were prepared from the cortical of newborn Wistar rats (1 day). Briefly, meninges and blood vessels of the mice cortex were removed and placed in ice-cold medium of Leibovitz (L15; PanBiotech, ref P04-27055, batch 4511117) containing 2% of Penicillin-Streptomycin (PS; PanBiotech, ref P06-07100, batch 2110917) and 1% of bovine serum albumin (BSA; PanBiotech, ref P06-1391100, batch H171006). Tissues were dissociated with 0.25% trypsin-EDTA (PanBiotech, ref P10-023100, batch 8970318) at 37° C. for 10 min. Cells were then submitted to a supplementary incubation of 15 min at 37° C. in presence of deoxyribonuclease I (0.1 mg/ml Panbiotech, ref: P60-37780100, batch: H170706). Cells were then pelleted (5 min at 1200 rpm) and trypsinization was stopped by adding DMEM (Panbiotech, Ref P04-03600, Batch 5181217) supplemented with 10% FCS (Fischer, Ref 10270106, batch 42G2068K), 1 mM of Na/pyruvate (PanBiotech, ref: P04-43100, batch: 3470914) and 2% PS. Cells suspension was mechanically dissociated and filtered through 40 μm diameter nylon meshes (BD Falcon, Ref: 352340). The cells were collected by centrifugation at 1200 rpm/min for 10 min, re-suspended in culture medium and then plated in culture flasks (Dutscher, ref: 690175). Cells were seeded at a density of 1.25×10^5 cells/cm^2 and cultured in 5% CO2 at 37° C. Medium was changed three times per week.
Analysis of BDNF expression by real-time quantitative polymerase chain reaction (PCR): astrocytes were seeded in 24 well-plates pre-coated with poly-D-lysine (Sigma, ref P7886, batch: SLBQ9797V). After 1 day of culture, fresh serum free medium containing compounds was added during 5 days at 37° C. At the end of the incubation time, medium was removed and total RNA content were extracted using kit nucleo spin RNS XS (Macherey Nagel; 20 μL/well). 6 wells/condition were done. RNA concentration was determined using a Nanodrop 2000 spectrophotometer (Life Technologies ThermoFisher Scientific, Villebon sur Yvette, France).
Reverse transcription was performed on 500 ng of RNA using the high capacity RNA-to-cDNA mix (Applied Biotechnologies). qPCR was performed on 12.5 ng of cDNA using the following primers, purchased from Applied Biotechnology.
For qPCR reactions, the kit TaqMan™ Fast Universal PCR Master Mix (2×) was used. The following volumes were used: mix: 10 uL, enzyme: 4 uL, oligo: 1 uL each, cDNA: 5 uL (12,5 ng). For the comparisons between various compounds and concentrations, expression levels were calculated using the ΔCt method where the expression level of the mRNA of interest is given by 2-ΔCT with ΔCT=CT target mRNA−CT reference mRNA (Gapdh), in the same sample. For the cultures treated with GA or the unknown compound, relative expression levels were determined according to the ΔΔCt method where the expression level of the mRNA of interest is given by 2-ΔΔCT where ΔΔCT=ΔCt for treated cultures−ΔCt for untreated cultures.

Data set [2] has as its system BDNF release by primary hippocampal neurons. Put plainly: BDNF release by primary hippocampal neurons, in situ ELISA. In kind it is cell-based, rat. Particulars: 1 μM, 3 days incubation. How it is done: Hippocampal neurons were plated in 96-well Nunc MaxiSorp surface polystyrene flat-bottom immunoplate precoated with poly-D-lysine during 30 min an anti-BDNF monoclonal antibody overnight at 4° C. at a density of 70,000 cells/well. […] At the end of drug treatment, cells were carefully washed with TBST (20 mM Tris-HCl (pH 7.6), 150 mM NaCl, and 0.05% (vol/vol) Tween 20). The plate was then incubated with the polyclonal anti-human BDNF antibody overnight and BDNF quantified.
Experimental Protocol—In Situ ELISA on Primary Hippocampal Neurons Hippocampal Neuron Culture
Newborn rats (Wistar rats, Janvier) were deeply anesthetized by hypothermia and decapitated. […] Cells were mechanically dissociated by 3 passages through a 10 ml pipette. Cells were then centrifuged at 515×g for 10 min at 4° C. […] Viable cells were counted in a Neubauer cytometer using the trypan blue exclusion test.
Hippocampal neurons were plated in 96-well Nunc MaxiSorp surface polystyrene flat-bottom immunoplate precoated with poly-D-lysine during 30 min (Sigma, Ref: P7886, batch: SLBS8705) an anti-BDNF monoclonal antibody overnight at 4° C. at a density of 70000 cells/well.
At the end of drug treatment, cells were carefully washed with TBST (20 mM Tris-HCl (pH 7.6), 150 mM NaCl, and 0.05% (vol/vol) Tween 20). The plate was then incubated with the polyclonal anti-human BDNF antibody overnight. The amount of specifically bound polyclonal antibody was then detected through the use of the anti-IgY-horseradish peroxidase tertiary antibody, which when exposed to the chromogenic substrate (TMB reagent; Promega), changes color in proportion to the amount of BDNF present in the sample. The color intensity was quantified by measuring the absorbance at 450 nm.

The subject of data set [3] is BDNF release by primary rat astrocytes. Description: BDNF release by primary rat astrocytes, in situ ELISA. In kind it is cell-based. To be noted: 1 μM, 5 days incubation. How it is done:
At confluency, astrocytes were plated in 96-well Nunc MaxiSorp surface polystyrene flat-bottom immunoplate precoated with poly-D-lysine during 30 min. and an anti-BDNF monoclonal antibody overnight at 4° C. at a density of 30,000 cells/well. […] At the end of drug treatment, cells were carefully washed with TBST (20 mM Tris-HCl (pH 7.6), 150 mM NaCl, and 0.05% (vol/vol) Tween 20). The plate was then incubated with the polyclonal anti-human BDNF antibody overnight and BDNF quantified. Experimental Protocol-In Situ ELISA on Primary Astrocytes Rat Primary Culture of Astrocytes Rat mixed glial cells were cultured as described by McCarthy et al. Primary rat glial cells were prepared from the cortical of newborn Wistar rats (1 day). […] Medium was changed 3 times per week. At confluency, astrocytes were plated in 96-well Nunc MaxiSorp surface polystyrene flat-bottom immunoplate precoated with poly-D-lysine during 30 min (Sigma, Ref: […], batch: SLBS8705) and an anti-BDNF monoclonal antibody overnight at 4° C. at a density of 30,000 cells/well. (Balkowiec and Katz “Cellular Mechanisms Regulating Activity-Dependent Release of Native Brain-Derived Neurotrophic Factor from Hippocampal Neurons” J. […] At the end of drug treatment, cells were carefully washed with TBST (20 mM Tris-HCl (pH 7.6), 150 mM NaCl, and 0.05% (vol/vol) Tween 20). The plate was then incubated with the polyclonal anti-human BDNF antibody overnight. The amount of specifically bound polyclonal antibody, which when exposed to chromogenic substrate (TMB reagent; Promega), changes color in proportion to the amount of BDNF present in the sample. The color intensity was quantified by measuring the absorbance at 450 nm. BDNF standards, ranging in concentration from 0 to 500 pg/mL were added in parallel wells in the same medium than hippocampal neurons.
In general terms: An ELISA detects its analyte on a solid surface through an enzyme-linked reagent.

For data set [4], the system named is GDNF release by primary rat astrocytes. Put plainly: GDNF release by primary rat astrocytes, in situ ELISA. To be noted: 1 μM, 5 days incubation. In kind it is cell-based. How it is done:
Experimental Protocol-In Situ ELISA on Primary Astrocytes Rat Primary Culture of Astrocytes Rat mixed glial cells were cultured as described by McCarthy et al. Primary rat glial cells were prepared from the cortical of newborn Wistar rats (1 day). Briefly, meninges and blood vessels of the mice cortex were removed and placed in ice-cold medium of Leibovitz (L15; PanBiotech, ref P04-27055, batch 4511117) containing 2% Penicillin-Streptomycin (PS; PanBiotech, ref P06-07100, batch 2110917) and 1% of bovine serum albumin (BSA; […] Cells were then submitted to a supplementary incubation of 15 min. at 37° C. in presence of deoxyribonuclease I (0.1 mg/mL Panbiotech, ref: P60-37780100, batch: H140508). Cells were then pelleted (5 min. at 1200 rpm) and trypsinization was stopped by adding DMEM (PanBiotech, Ref P04-03600, Batch 8420517) supplemented with 10% FCS (Fischer, Ref 10270106, batch 41A0940K), 1 mM of Na/pyruvate (PanBiotech, ref: P04-43100, batch 3470914). Cells suspension was mechanically dissociated and filtered through […] diameter nylon meshes (BD Falcon, Ref: 352340). The cells were collected by centrifugation at 1200 rpm/min for 10 min, resuspended in culture medium and then plated in culture flasks (Dutscher, ref: 690175). Cells were seeded at a density of 1.25×10^5 cells/cm^2 and culture in 5% CO2 at 37° C. Medium was changed 3 times per week. At confluency, astrocytes were plated in 96-well Nunc MaxiSorp surface polystyrene flat-bottom immunoplate precoated with poly-D-lysine during 30 min (Sigma, Ref: […], batch: SLBS8705) and an anti-GDNF monoclonal antibody overnight at 4° C. at a density of 30,000 cells/well. […] At the end of drug treatment, cells were carefully washed with TBST (20 mM Tris-HCl (pH 7.6), 150 mM NaCl, and 0.05% (vol/vol) Tween 20). The plate was then incubated with the polyclonal anti-human GDNF antibody overnight. The amount of specifically bound polyclonal antibody, which when exposed to chromogenic substrate (TMB reagent; Promega), changes color in proportion to the amount of GDNF present in the sample. The color intensity was quantified by measuring the absorbance at 450 nm. GDNF standards, ranging in concentration from 0 to 500 pg/mL were added in parallel wells in the same medium than hippocampal neurons.

The conditions of data set [5]: modified release (MR) formulation of Compound (I) that reduces QT prolongation; cited from earlier work.

Where only a bound is given, the exact number is not on record here.

Take glatiramer acetate [reference compound]: the “BDNF expression astrocytes, % increase of control conditions” value in data set [1] and in data set [1] (listed as glatiramer acetate) was 10% each time. The “Effect on BDNF expression by astrocytes compared to control condition (statistical)” value in data set [1] (25 μg/mL, 5 days, ns p>0.05) is on record as “no effect”.

Regarding `CCCN1CCC(c2cccc(S(C)(=O)=O)c2)CC1` [Pridopidine, pridopidine, reference compound], the “BDNF release hippocampal neurons, % increase of control conditions” value in data set [2] and in data set [2] (listed as pridopidine) was 18.4% in each case. Also, the “BDNF release astrocytes, % increase of control conditions” value is given as 22.3% in data set [3] and 22% in data set [3] (listed as pridopidine).

Consider `Cc1cccc([C@H](C)c2cnc[nH]2)c1C` [Dexmedetomidine, dexmedetomidine, reference compound], for which the “GDNF release astrocytes, % increase of control conditions” value in data set [4] and in data set [4] (listed as dexmedetomidine) was 15.8% each time.

On to `O=C1c2ccccc2CN1CC1CCN(CC(O)c2ccc(F)cc2)CC1` (stereo not shown) [BFB-520], for which the “maximum plasma concentration (Cmax)” value in data set [5] is listed as under 12 ng/mL.

The record behind these values is patent US11083723B2, “Use of roluperidone to treat negative symptoms and disorders, increase neuroplasticity, and promote neuroprotection” (Minerva Neurosciences, Inc., priority 2018, dated 2021).
